Literature values in patent US11884694B2, “Non-caloric sweeteners and methods for synthesizing” (Conagen Inc., priority 2014, dated 2024).

Settings: sweetness compared with sucrose

Structure (SMILES) | times sweeter than sucrose
C=C1C[C@@]23CC[C@H]4[C@@](C)(CCC[C@@]4(C)C(=O)O[C@@H]4O[C@H](CO)[C@@H](O)[C@H](O)[C@H]4O)[C@@H]2CC[C@]1(O[C@@H]1O[C@H](CO)[C@@H](O)[C@H](O)[C@H]1O[C@@H]1O[C@@H](C)[C@H](O)[C@@H](O)[C@H]1O)C3 [Dulcoside A] | about 30 times
C=C1C[C@@]23CC[C@H]4[C@@](C)(CCC[C@@]4(C)C(=O)O[C@@H]4O[C@H](CO)[C@@H](O)[C@H](O)[C@H]4O)[C@@H]2CC[C@]1(O[C@@H]1O[C@H](CO)[C@@H](O)[C@H](O[C@@H]2O[C@H](CO)[C@@H](O)[C@H](O)[C@H]2O)[C@H]1O[C@@H]1O[C@@H](C)[C@H](O)[C@@H](O)[C@H]1O)C3 [Rebaudioside C] | 40-60 times
C=C1C[C@@]23CC[C@H]4[C@@](C)(CCC[C@@]4(C)C(=O)O[C@@H]4O[C@H](CO)[C@@H](O)[C@H](O)[C@H]4O)[C@@H]2CC[C@]1(O[C@@H]1O[C@H](CO)[C@@H](O)[C@H](O)[C@H]1O[C@@H]1O[C@H](CO)[C@@H](O)[C@H](O)[C@H]1O)C3 [stevioside, Stevioside] | 100-150 times
